Laboratory results taken from PubChem BioAssay AID330 (DTP/NCI, 2004).
Where “and” joins values, the source holds several entries; their conditions need not be identical. Equal entries are not always repeated. Toxic doses and inconclusive results are not listed. The calls were made as follows: active = survival T/C of 150% or more; inactive = T/C below 125% in these data.

Test system: P388 leukemia ip, CD2F1 mice, survival T/C
Assay: NCI In Vivo Anticancer Drug Screen. Data for tumor model P388 Leukemia (intraperitoneal) in CD2F1 (CDF1) mice
Conditions: endpoint: median survival time, higher = longer survival
Summary of the method: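 Mice carrying the transplanted tumor received test compound or vehicle. Survival was recorded in each group, and the value is the treated-group measurement divided by that of the vehicle-treated control group.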

[1] = dose: 50.0 mg/kg/injection, schedule: Q01DX009 (ip), vehicle: saline with Tween-80
[2] = dose: 100.0 mg/kg/injection, schedule: Q01DX009 (ip), vehicle: saline with Tween-80
[3] = dose: 200.0 mg/kg/injection, schedule: Q01DX009 (ip), vehicle: saline with Tween-80
[4] = dose: 12.5 mg/kg/injection, schedule: Q01DX005 (ip), vehicle: Klucel (hydroxypropylcellulose) (HPC)
[5] = dose: 25.0 mg/kg/injection, schedule: Q01DX005 (ip), vehicle: Klucel (hydroxypropylcellulose) (HPC)
[6] = dose: 60.0 mg/kg/injection, schedule: Q01DX005 (ip), vehicle: saline with Tween-80
[7] = dose: 120.0 mg/kg/injection, schedule: Q01DX005 (ip), vehicle: saline with Tween-80
[8] = dose: 240.0 mg/kg/injection, schedule: Q01DX005 (ip), vehicle: saline with Tween-80
[9] = dose: 50.0 mg/kg/injection, schedule: Q01DX005 (ip), vehicle: saline with Tween-80
[10] = dose: 100.0 mg/kg/injection, schedule: Q01DX005 (ip), vehicle: saline with Tween-80
[11] = dose: 60.0 mg/kg/injection, schedule: Q01DX005 (ip), vehicle: Klucel (hydroxypropylcellulose) (HPC)
[12] = dose: 120.0 mg/kg/injection, schedule: Q01DX005 (ip), vehicle: Klucel (hydroxypropylcellulose) (HPC)
[13] = dose: 240.0 mg/kg/injection, schedule: Q01DX005 (ip), vehicle: Klucel (hydroxypropylcellulose) (HPC)
[14] = dose: 60.0 mg/kg/injection, schedule: Q01DX005 (ip), vehicle: saline
[15] = dose: 120.0 mg/kg/injection, schedule: Q01DX005 (ip), vehicle: saline
[16] = dose: 240.0 mg/kg/injection, schedule: Q01DX005 (ip), vehicle: saline
[17] = dose: 50.0 mg/kg/injection, schedule: Q01DX009 (ip), vehicle: saline
[18] = dose: 200.0 mg/kg/injection, schedule: Q01DX009 (ip), vehicle: saline

Measured: T/C

CC(NC(=O)OCc1ccccc1)C(=O)NC(CCC(=O)O)C(=O)O (centres undefined)
inactive: dose: 50.0 mg/kg/injection, schedule: Q01DX005 (ip), vehicle: saline 97 % of control | dose: 100.0 mg/kg/injection, schedule: Q01DX005 (ip), vehicle: saline 101 % of control | dose: 200.0 mg/kg/injection, schedule: Q01DX005 (ip), vehicle: saline 106 % of control

CSC(C)(C(=N)C#N)N(C)C (centres undefined)
inactive: dose: 12.5 mg/kg/injection, schedule: Q04DX003 (ip), vehicle: saline 103 % of control | dose: 25.0 mg/kg/injection, schedule: Q04DX003 (ip), vehicle: saline 100 % of control | dose: 50.0 mg/kg/injection, schedule: Q04DX003 (ip), vehicle: saline 104 % of control

CCCCC(SC(CC)(C(N)=O)c1ccccc1)C(=O)O (centres undefined)
inactive: [1] 108 % of control | [2] 105 % of control | [3] 106 % of control | dose: 400.0 mg/kg/injection, schedule: Q01DX009 (ip), vehicle: saline with Tween-80 97 % of control

O=C1C(Cl)=C(NCCC2CCCN3CCCCC23)C(=O)c2ccccc21 (centres undefined)
inactive: [4] 99 % of control and 101 % of control and 93 % of control | [5] 98 % of control and 99 % of control and 97 % of control | dose: 100.0 mg/kg/injection, schedule: Q01DX005 (ip), vehicle: Klucel (hydroxypropylcellulose) (HPC) 109 % of control and 111 % of control

CCN(CC)CCCNc1c(O)cc(C)c2sc3ccccc3c(=O)c12
inactive: [1] 94 % of control | [2] 94 % of control | [3] 100 % of control

CC(C)(C)OC(=O)N/C=C/c1ccccc1
inactive: dose: 100.0 mg/kg/injection, schedule: Q04DX002 (ip), vehicle: suspension in saline 101 % of control | dose: 200.0 mg/kg/injection, schedule: Q04DX002 (ip), vehicle: suspension in saline 92 % of control | dose: 400.0 mg/kg/injection, schedule: Q04DX002 (ip), vehicle: suspension in saline 94 % of control

COc1ccc2cc1Oc1cc3c(cc1OC)CC[N+](C)(C)C3Cc1ccc(cc1)Oc1c(OC)c(OC)cc3c1C(C2)[N+](C)(C)CC3 (centres undefined)
inactive: dose: 0.03 mg/kg/injection, schedule: Q01DX009 (ip), vehicle: saline 102 % of control and 106 % of control | dose: 0.07 mg/kg/injection, schedule: Q01DX009 (ip), vehicle: saline 100 % of control and 113 % of control | dose: 0.15 mg/kg/injection, schedule: Q01DX009 (ip), vehicle: saline 105 % of control and 106 % of control and 121 % of control | dose: 0.31 mg/kg/injection, schedule: Q01DX009 (ip), vehicle: saline 105 % of control and 112 % of control and 96 % of control | dose: 0.62 mg/kg/injection, schedule: Q01DX009 (ip), vehicle: saline 118 % of control

CC1=C(Cl)C(=N\S(=O)(=O)c2ccccc2)/c2ccccc2/C1=N/S(=O)(=O)c1ccccc1
inactive: dose: 100.0 mg/kg/injection, schedule: Q01DX001 (ip), vehicle: saline with Tween-80 95 % of control | dose: 200.0 mg/kg/injection, schedule: Q01DX001 (ip), vehicle: saline with Tween-80 95 % of control

O=C1CCC(c2nc3ccccc3[nH]2)N1Cc1ccccc1 (centres undefined)
inactive: [6] 97 % of control | [7] 90 % of control | [8] 89 % of control

COC(=O)Nc1cn2ccc(C(Cl)=C(Cl)Cl)cc2n1
inactive: dose: 50.0 mg/kg/injection, schedule: Q01DX009 (ip), vehicle: Klucel (hydroxypropylcellulose) (HPC) 107 % of control and 109 % of control | dose: 100.0 mg/kg/injection, schedule: Q01DX009 (ip), vehicle: Klucel (hydroxypropylcellulose) (HPC) 117 % of control and 122 % of control | dose: 200.0 mg/kg/injection, schedule: Q01DX009 (ip), vehicle: Klucel (hydroxypropylcellulose) (HPC) 116 % of control

CC(=O)CSCP(=O)(c1ccccc1)c1ccccc1
inactive: [9] 100 % of control | [10] 99 % of control | dose: 200.0 mg/kg/injection, schedule: Q01DX005 (ip), vehicle: saline with Tween-80 99 % of control

COC(=O)NN(C(=O)OC)C1CCCC2C1c1ccc3ccccc3c1N(C(=O)OC)N2C(=O)OC (centres undefined)
inactive: [11] 107 % of control | [12] 100 % of control | [13] 109 % of control

CS(=O)(=O)C(=C1C(=O)NC(=O)NC1=O)S(C)(=O)=O
inactive: [4] 98 % of control | [5] 100 % of control | dose: 50.0 mg/kg/injection, schedule: Q01DX005 (ip), vehicle: Klucel (hydroxypropylcellulose) (HPC) 107 % of control and 109 % of control

CC1C2C=CC1C(c1c3ccc(=O)c(O)c-3oc3c(O)c(O)ccc13)C2C(=O)O (centres undefined)
inactive: [6] 94 % of control | [7] 87 % of control | [8] 91 % of control

CC12NCCC(CC(=O)N1)C2(C)C (centres undefined)
inactive: [14] 103 % of control | [15] 110 % of control | [16] 106 % of control

CCOC(=O)C1=C(C(C)=O)C(c2ccccc2[N+](=O)[O-])C(C(C)=O)=C(C(=O)OCC)N1
inactive: [14] 104 % of control | [15] 105 % of control | [16] 96 % of control

CCCCCC(=O)c1c(O)cc2c(c1O)C(=O)c1c(O)cc(OC)cc1C2=O
inactive: dose: 6.25 mg/kg/injection, schedule: Q01DX009 (ip), vehicle: saline with Tween-80 93 % of control | dose: 12.5 mg/kg/injection, schedule: Q01DX009 (ip), vehicle: saline with Tween-80 93 % of control

COc1cc2c(cc1OC)C(CO)C1c3cc4c(cc3CCN1C2)OCO4 (centres undefined)
inactive: dose: 50.0 mg/kg/injection, schedule: Q04DX003 (ip), vehicle: distilled water + Tween-80 98 % of control | dose: 100.0 mg/kg/injection, schedule: Q04DX003 (ip), vehicle: distilled water + Tween-80 98 % of control | dose: 200.0 mg/kg/injection, schedule: Q04DX003 (ip), vehicle: distilled water + Tween-80 96 % of control | dose: 400.0 mg/kg/injection, schedule: Q04DX003 (ip), vehicle: distilled water + Tween-80 96 % of control

CC12CCC(C/C1=N\[N+](=O)[O-])C2(C)C (centres undefined)
inactive: dose: 12.5 mg/kg/injection, schedule: Q01DX009 (ip), vehicle: suspension in saline 96 % of control | dose: 25.0 mg/kg/injection, schedule: Q01DX009 (ip), vehicle: suspension in saline 97 % of control | [17] 100 % of control | dose: 50.0 mg/kg/injection, schedule: Q01DX009 (ip), vehicle: suspension in saline 97 % of control | [18] 90 % of control

CCOc1ccc(C(C)c2cc3c(cc2OCC(=O)O)OCO3)cc1 (centres undefined)
inactive: [9] 109 % of control | [10] 90 % of control

COc1ccc(C(C)c2cc3c(cc2OC(C)O)OCO3)cc1 (centres undefined)
inactive: [6] 92 % of control | [7] 94 % of control | [8] 97 % of control

CCO/C(C)=[N+](/[O-])S(=O)(=O)c1c(C)cc(C)cc1C
inactive: dose: 100.0 mg/kg/injection, schedule: Q01DX001 (ip), vehicle: saline 103 % of control | dose: 200.0 mg/kg/injection, schedule: Q01DX001 (ip), vehicle: saline 100 % of control | dose: 400.0 mg/kg/injection, schedule: Q01DX001 (ip), vehicle: saline 104 % of control

CCn1c(=O)c2[nH]c(Cl)nc2n(CCCOC)c1=O
inactive: dose: 100.0 mg/kg/injection, schedule: Q04DX002 (ip), vehicle: Klucel (hydroxypropylcellulose) (HPC) 101 % of control | dose: 200.0 mg/kg/injection, schedule: Q04DX002 (ip), vehicle: Klucel (hydroxypropylcellulose) (HPC) 95 % of control | dose: 400.0 mg/kg/injection, schedule: Q04DX002 (ip), vehicle: Klucel (hydroxypropylcellulose) (HPC) 87 % of control

COc1ccc(/C=N\NC(=O)C(=O)N/N=C\c2ccc(OC)cc2)cc1
inactive: dose: 12.5 mg/kg/injection, schedule: Q01DX009 (ip), vehicle: distilled water + alcohol 103 % of control | dose: 25.0 mg/kg/injection, schedule: Q01DX009 (ip), vehicle: distilled water + alcohol 100 % of control | dose: 50.0 mg/kg/injection, schedule: Q01DX009 (ip), vehicle: distilled water + alcohol 94 % of control | dose: 100.0 mg/kg/injection, schedule: Q01DX009 (ip), vehicle: distilled water + alcohol 89 % of control | dose: 200.0 mg/kg/injection, schedule: Q01DX009 (ip), vehicle: distilled water + alcohol 108 % of control

CCOC(=O)C(CC)/C(C)=N\NC(N)=S (centres undefined)
inactive: [11] 100 % of control | [12] 101 % of control | [13] 99 % of control

CC(O)CC(c1ccccc1)C(C(=O)O)c1ccccc1 (centres undefined)
inactive: [17] 108 % of control | dose: 100.0 mg/kg/injection, schedule: Q01DX009 (ip), vehicle: saline 101 % of control | [18] 95 % of control

OC1(c2ccncc2)C=CCC1 (centres undefined)
inactive: dose: 100.0 mg/kg/injection, schedule: Q04DX002 (ip), vehicle: saline with Tween-80 95 % of control
